Measurements reported in US9346767B2, “Substituted pyrazines and a process for producing the same” (JNC CORPORATION, priority 2011, dated 2016).

Assays:
Renilla luciferase-547 = target: T1, Renilla luciferase-547 (Renilla reniformis, UniProt P27652, A123S/A143M/A55T/C124A/D154A/D162E/E155G/F262W/I163V/K136R/M185V/M253L/S130A/S287L); test: Measurement of emission spectrum with Renilla luciferase-547; type: biochemical; settings: Renilla luciferase-547, 5 μg substrate, 50 mM Tris-HCl (pH 7.6)-10 mM EDTA, 22-25° C.
T1 construct: His6 with pCold-II leader (MNHKVHHHHHHMELG...) (N); made in house; host or cells: Escherichia coli BL21
Method: (§1) The luminescence reaction was initiated by adding luciferase to 1 mL of 50 mM Tris-HCl (pH 7.6)-10 mM EDTA containing 5 μg (1 μg/μL) of substrate coelenterazine or ν-coelenterazine dissolved in ethanol. The protein amounts of luciferases used were Renilla luciferase: 1.5 μg and Renilla luciferase-547: 7.2 μg in the case of coelenterazine as substrate. On the other hand, the protein amounts in ν-coelenterazine as substrate were Renilla luciferase: 14.7 μg and Renilla luciferase-547: 35.8 μg. Luminescence spectra were measured in a quartz cell with a 10 mm optical path under the conditions of band width: 20 nm, sensitivity: medium, scan speed: 2000 nm/min and 22-25° C., using a fluorescence spectrophotometer FP-6500 (manufactured by JASCO) with the excitation light source turned off.

Renilla luciferase [1] = target: T2, Renilla luciferase (Renilla reniformis, UniProt P27652); test: Measurement of luminescence activity with Renilla luciferase; type: biochemical; design: His tag (from vector pCold-II; inferred from the nickel-chelate purification and the vector) (N); made in house; host or cells: Escherichia coli BL21; settings: Renilla luciferase 2.94 ng, 0.05 μg substrate, 30 mM Tris-HCl (pH 7.6)-10 mM EDTA; relative to coelenterazine
T2 sequence (P27652 1-311): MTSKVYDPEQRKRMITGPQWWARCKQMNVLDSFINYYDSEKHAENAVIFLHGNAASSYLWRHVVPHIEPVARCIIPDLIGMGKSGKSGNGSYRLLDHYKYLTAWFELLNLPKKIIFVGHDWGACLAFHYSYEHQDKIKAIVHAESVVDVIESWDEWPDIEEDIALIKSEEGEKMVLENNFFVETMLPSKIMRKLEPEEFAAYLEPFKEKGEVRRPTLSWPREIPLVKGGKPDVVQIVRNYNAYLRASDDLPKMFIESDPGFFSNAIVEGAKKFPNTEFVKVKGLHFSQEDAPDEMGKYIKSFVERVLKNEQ
Method: After Renilla luciferase (2.94 ng) or Renilla luciferase-547 (14.3 ng) was dispensed into a 96-well microplate (manufactured by Nunc) in an amount of 10 μL/well, 0.1 mL of 30 mM Tris-HCl (pH 7.6)-10 mM EDTA containing 0.05 μg of coelenterazine or ν-coelenterazine was injected into the wells thereby to initiate the luminescence reaction, and the luminescence intensity was measured using a luminescence plate reader Centro LB960 (manufactured by Berthold). The luminescence intensity was measured for 60 seconds 3 times in 0.1 second intervals, and the maximum luminescence intensity (Imax) and the mean (rlu) from luminescence integrated for 60 seconds were expressed in terms of relative activity (%) (TABLE 2).

Renilla luciferase [2] = target: T2, Renilla luciferase; test: Measurement of emission spectrum with Renilla luciferase; type: biochemical; design: His tag (from vector pCold-II; inferred from the nickel-chelate purification and the vector) (N); made in house; host or cells: Escherichia coli BL21; settings: for Emission Maximum λmax / Emission spectrum half bandwidth: Renilla luciferase, 5 μg substrate, 50 mM Tris-HCl (pH 7.6)-10 mM EDTA, 22-25° C.; for shift of maximum emission wavelength (in words): summary of EXAMPLES, Renilla luciferase and Renilla luciferase-547
Method: as §1

Renilla luciferase [3] = target: T2, Renilla luciferase; settings: substrate for Renilla luciferase, cited from earlier work

T1 sequence (P27652 other isoform, or with tags, fused parts or gaps with the stated changes): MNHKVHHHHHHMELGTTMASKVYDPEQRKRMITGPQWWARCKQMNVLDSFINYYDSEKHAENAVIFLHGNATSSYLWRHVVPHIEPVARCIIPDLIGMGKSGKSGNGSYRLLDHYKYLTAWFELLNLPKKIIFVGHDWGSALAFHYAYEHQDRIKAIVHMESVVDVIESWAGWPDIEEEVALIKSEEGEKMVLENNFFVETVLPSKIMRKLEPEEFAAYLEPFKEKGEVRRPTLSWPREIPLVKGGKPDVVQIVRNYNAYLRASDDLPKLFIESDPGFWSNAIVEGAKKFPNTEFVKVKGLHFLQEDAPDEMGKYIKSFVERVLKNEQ

Row | Compound | Emission Maximum λmax (Renilla luciferase-547) [nm] | Emission spectrum half bandwidth (Renilla luciferase-547) [nm] | Luminescence integrated for 60 seconds (Int.), relative activity (Renilla luciferase [1]) | Maximum Luminescence Intensity Imax, relative activity (Renilla luciferase [1]) | Emission Maximum λmax (Renilla luciferase [2]) [nm] | Emission spectrum half bandwidth (Renilla luciferase [2]) [nm] | shift of maximum emission wavelength (in words) (Renilla luciferase [2]) | part of emission spectrum distribution reaching the near-infrared region (>700 nm) (Renilla luciferase [3]) [%] | shift of maximum emission wavelength toward the longer wavelength side (Renilla luciferase [3]; from 475 nm) | maximum emission wavelength (Renilla luciferase [3]; green emission) [nm]
1 | O=c1c(Cc2ccc(O)cc2)nc2c(Cc3ccccc3)[nH]c(-c3ccc(O)cc3)cn1-2 [Coelenterazine, coelenterazine, reference compound] | 547.0 | 124 | 100 (100) % | 100 (100) % | 485.0 | 95 |  |  |  | 
2 | O=c1c(Cc2ccc(C(F)(F)F)cc2)nc2c(Cc3ccccc3)[nH]c3c4ccc(O)cc4ccc3n1-2 [cf3-v-Coelenterazine, cf3-ν-coelenterazine] | 599.0 | 132 | 12.3% | 18.9% | 525.5 | 121 | shifted toward a longer wavelength side even relative to ν-coelenterazine |  |  | 
3 | O=c1c(Cc2ccc(O)cc2)nc2c(Cc3ccccc3)[nH]c3c4ccc(O)cc4ccc3n1-2 [v-Coelenterazine, ν-Coelenterazine] | 593.0 | 130 | 47.3% | 71.8% | 519.0 | 105 | shifted toward a longer wavelength side relative to coelenterazine | ~5 | about 40 nm | 512
